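Exposure lasted 48 hours, with cells grown in 96-well plates and compounds tested at five concentrations. TGI: total growth inhibition.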
Legend:
Assay in all cases: growth of human tumour cells (NCI), 48 h
[1] = tested on: RXF-631 renal
[2] = tested on: SR leukemia
[3] = tested on: NCI-H226 lung
[4] = tested on: NCI-H522 lung
[5] = tested on: 786-0 renal
[6] = tested on: K-562 leukemia
[7] = tested on: HOP-62 NSCLC
[8] = tested on: UO-31 renal
[9] = tested on: SNB-19 CNS
[10] = tested on: SN12C renal
[11] = tested on: UACC-257 melanoma
[12] = tested on: ACHN renal
[13] = tested on: NCI-H23 lung
[14] = tested on: U251 CNS
[15] = tested on: HCT-116 colon
[16] = tested on: MOLT-4 leukemia
[17] = tested on: KM12 colon
[18] = tested on: RPMI-8226 leukemia
[19] = tested on: SW-620 colon
[20] = tested on: SF-268 CNS
[21] = tested on: HCC-2998 colon
[22] = tested on: SK-MEL-5 melanoma
[23] = tested on: CAKI-1 renal
[24] = tested on: OVCAR-8 ovarian
[25] = tested on: SK-MEL-28 melanoma
[26] = tested on: SK-OV-3 ovarian
[27] = tested on: A549 NSCLC
[28] = tested on: LOX IMVI melanoma
[29] = tested on: RXF 393 renal
[30] = tested on: SK-MEL-2 melanoma
[31] = tested on: M19-MEL melanoma
[32] = tested on: DMS 273 small cell lung
[33] = tested on: HCT-15 colon
[34] = tested on: COLO 205 colon
[35] = tested on: HOP-18 NSCLC
[36] = tested on: EKVX NSCLC
[37] = tested on: HOP-92 NSCLC
[38] = tested on: TK-10 renal
[39] = tested on: NCI-H460 lung
[40] = tested on: UACC-62 melanoma
[41] = tested on: OVCAR-3 ovarian
[42] = tested on: CCRF-CEM leukemia
[43] = tested on: OVCAR-5 ovarian
[44] = tested on: M14 melanoma
[45] = tested on: SNB-78 CNS
[46] = tested on: MALME-3M melanoma
[47] = tested on: A498 renal
[48] = tested on: SF-295 CNS
[49] = tested on: IGROV1 ovarian
[50] = tested on: DMS 114 small cell lung
[51] = tested on: OVCAR-4 ovarian
[52] = tested on: KM20L2 colon
[53] = tested on: LXFL 529 NSCLC
[54] = tested on: SNB-75 CNS
[55] = tested on: DLD-1 colon
[56] = tested on: HT29 colon

Measured: TGI

O=C(O)C1(c2ccccc2)CCCNCC1 (stereo unspecified)
> 100 µM: [1] | [2] | [3] | [4] | [5] | [6] | [7] | [8] | [9] | [10] | [11] | [12] | [13] | [14] | [15] | [16] | [17] | [18] | [19] | [20] | [21] | [22] | [23] | [24] | [25] | [26] | [27] | [28] | [29] | [30] | [31] | [32] | [33] | [34] | [35] | [36] | [37] | [38] | [39] | [40] | [41] | [42] | [43] | [44] | [45] | [46] | [47] | [48] | [49] | [50] | [51] | [52] | [53] | [54] | [55] | [56]

Reference: PubChem BioAssay (NCI)
